In article PMC11143257, “Atomistic mechanism of coupling between cytosolic sensor domain and selectivity filter in TREK K2P channels” (Nature Communications, 2024):
Residue numbers refer to the chain shown, from its start.

Assays:
Experiment in all cases: MTS probe modification, inside-out patch-clamp
Assay type in all cases: cell-based
Details in all cases: 100 µM decyl-MTS
TREK-1 F325C = molecular target: T1, TREK-1 F325C (Homo sapiens, UniProt O95069, F325C)
T1 construct: expressed in transfected cells; host or cells: Xenopus laevis oocytes (cRNA injection), excised inside-out patches
T1 sequence (O95069 1-426 F325C): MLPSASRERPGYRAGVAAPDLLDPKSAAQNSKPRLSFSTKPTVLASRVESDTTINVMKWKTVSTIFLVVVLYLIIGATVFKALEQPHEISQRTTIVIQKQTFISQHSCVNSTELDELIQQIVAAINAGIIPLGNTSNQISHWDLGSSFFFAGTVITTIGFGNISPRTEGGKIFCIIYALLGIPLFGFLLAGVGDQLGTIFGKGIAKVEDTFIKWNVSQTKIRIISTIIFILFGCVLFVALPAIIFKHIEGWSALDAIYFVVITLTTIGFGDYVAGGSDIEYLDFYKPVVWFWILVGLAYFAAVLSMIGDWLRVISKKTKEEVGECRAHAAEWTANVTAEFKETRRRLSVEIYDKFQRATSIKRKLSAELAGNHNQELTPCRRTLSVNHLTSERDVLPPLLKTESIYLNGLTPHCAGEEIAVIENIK
Experimental: (§1) First, we measured WT TREK-1, WT TRAAK and TREK-2^* channels without modifiable cysteine residues as references. […] Note, that patch integrity and channel regulation were tested with either 1 mM tetra-pentyl-ammonium (TPenA) and a short pHi activation step. Next, we conducted systematic cysteine scanning mutagenesis of the entire pCt and examined the effect of charged and aliphatic MTS probes.
(§2) Xenopus laevis oocytes were surgically removed from anesthetized adult females, treated with type II collagenase (Sigma-Aldrich/Merck, Germany) and manually defolliculated. A solution containing the K^+ channel-specific cRNA at a desired concentration was injected into Dumont stage V - VI oocytes and subsequently incubated at 17 °C in a solution containing (mM): 54 NaCl, […], 2.4 NaHCO3, 0.82 MgSO4 x 7 H2O, 0.41 CaCl2, 0.33 Ca(NO3)2 x 4 H2O and 7.5 TRIS (pH 7.4 adjusted with NaOH/HCl) for 1 - 7 days before use. Patch-clamp recordings in an inside-out configuration under voltage-clamp conditions were performed at room temperature (22 - 24 °C). Patch pipettes were made from thick-walled borosilicate glass GB 200TF-8P (Science Products, Germany), had resistances of 0.2 - 0.5 MΩ (tip diameter of 10 - 25 µm) and filled with a pipette solution (in mM): 120 KCl, 10 HEPES and 3.6 CaCl2 (pH 7.4 adjusted with KOH/HCl). Intracellular bath solutions and compounds were applied to the cytoplasmic side of excised patches for the various K^+ channels via a gravity flow multi-barrel pipette system. The intracellular solution had the following composition (in mM): 120 KCl, 10 HEPES, 2 EGTA, and 1 Pyrophosphate (pH adjusted with KOH/HCl). Currents were recorded with an EPC10 amplifier (HEKA electronics, Germany) and sampled at 10 kHz or higher and filtered with 3 kHz (-3 dB) or higher as appropriate for the sampling rate.
(§3) Tetra-pentyl-ammonium chloride (TPenA) was purchased from Merck (Sigma-Aldrich), prepared as 100 mM stocks in intracellular recording solution, stored at −20 °C and diluted to a final concentration in intracellular recording solution before measurements. Decyl-MethaneThioSulfonate (Decyl-MTS), (2-(trimethylammonium)ethyl)MethaneThioSulfonate bromide (MTS-ET^+) and Sodium (2-sulfonatoethyl)MethaneThioSulfonate (MTS-ES^-) were purchased from Toronto Research Chemicals. MTS-ET^+ was directly dissolved to the desired concentration of 1 mM in the intracellular recording solution before each experiment. MTS-ET^+ was used immediately after dilution for maximally 5 min. Decyl-MTS and […] were prepared as 10 - 100 mM stocks in DMSO and diluted to the desired concentration before the measurements.
(§4) The fold current increase (fold activation) of a ligand (decyl-MTS) was calculated from the following equation:1 FoldactivationFA=Iactivated/Ibasal with Iactivated represents the stable current level in the presence of 100 µM decyl-MTS and Ibasal the measured current before application of the MTS probe.

TREK-1 T318C = molecular target: T2, TREK-1 T318C (Homo sapiens, UniProt O95069, T318C)
T2 construct: expressed in transfected cells; host or cells: Xenopus laevis oocytes (cRNA injection), excised inside-out patches
T2 sequence (O95069 1-426 T318C): T1 sequence (O95069 1-426 F325C) with T318C, C325F
Experimental: as §1, §2, §3, §4

TREK-1 V322C = molecular target: T3, TREK-1 V322C (Homo sapiens, UniProt O95069, V322C)
T3 construct: expressed in transfected cells; host or cells: Xenopus laevis oocytes (cRNA injection), excised inside-out patches
T3 sequence (O95069 1-426 V322C): T1 sequence (O95069 1-426 F325C) with V322C, C325F
Experimental: as §1, §2, §3, §4

full current increase (fold activation) (TREK-1 F325C; mean ± s.e.m.): 103 ± 20 fold
effect on current (TREK-1 F325C; symmetric K+, +40 mV, pH 7.4): robust activation
full current increase (fold activation) (TREK-1 T318C; mean ± s.e.m.): 33 ± 11 fold
effect on current (TREK-1 T318C; symmetrical K+, +40 mV, pH 7.4): strong and irreversible activation
full current increase (fold activation) (TREK-1 V322C; mean ± s.e.m.): 42 ± 17 fold
effect on current (TREK-1 V322C; symmetrical K+, +40 mV, pH 7.4): strong and irreversible activation
Compound: CCCCCCCCCCSS(C)(=O)=O [decyl-MTS, Decyl-MethaneThioSulfonate]
